From the NIST ThermoML archive (doi:10.1016/j.fluid.2013.08.005)

Test: molar heat capacity at constant pressure; mn = molality of the nth substance listed, in mol/kg
Conditions: 101 kPa, Liquid, Large sample (1 g) DSC

CCCCCCCC[N+](C)(C)C.[Br-] [octyl trimethyl ammonium bromide] + O
molar heat capacity at constant pressure [J/K/mol]
Conditions | 298.15 K | 303.15 K | 308.15 K | 313.15 K
m1 = 0.00997 | 75.46 | 75.44 | 75.44 | 75.45
m1 = 0.01501 | 75.58 | 75.55 | 75.54 | 75.55
m1 = 0.025 | 75.69 | 75.66 | 75.65 | 75.66
m1 = 0.04 | 75.85 | 75.83 | 75.82 | 75.83
m1 = 0.05 | 75.95 | 75.93 | 75.92 | 75.93
m1 = 0.07502 | 76.27 | 76.24 | 76.23 | 76.25
m1 = 0.08 | 76.32 | 76.29 | 76.29 | 76.3
m1 = 0.08509 | 76.4 | 76.38 | 76.36 | 76.36
m1 = 0.09999 | 76.54 | 76.51 | 76.5 | 76.51
m1 = 0.1202 | 76.79 | 76.74 | 76.74 | 76.77
m1 = 0.125 | 76.85 | 76.82 | 76.81 | 76.81
m1 = 0.1397 | 76.98 | 76.95 | 76.93 | 76.93
m1 = 0.15 | 77.1 | 77.08 | 77.07 | 77.08
m1 = 0.16 | 77.21 | 77.19 | 77.17 | 77.15
m1 = 0.175 | 77.41 | 77.38 | 77.37 | 77.37
m1 = 0.1799 | 77.47 | 77.44 | 77.43 | 77.42
m1 = 0.1898 | 77.59 | 77.55 | 77.54 | 77.53
m1 = 0.2 | 77.66 | 77.63 | 77.61 | 77.61
m1 = 0.2197 | 77.9 | 77.87 | 77.85 | 77.83
m1 = 0.24 | 78.15 | 78.11 | 78.09 | 78.08
m1 = 0.25 | 78.24 | 78.2 | 78.18 | 78.17
m1 = 0.2601 | 78.37 | 78.32 | 78.29 | 78.28
m1 = 0.2751 | 78.52 | 78.47 | 78.44 | 78.42
m1 = 0.2801 | 78.66 | 78.63 | 78.59 | 78.56
m1 = 0.2999 | 78.81 | 78.74 | 78.69 | 78.67
m1 = 0.3251 | 79.06 | 78.99 | 78.94 | 78.91
m1 = 0.3497 | 79.28 | 79.2 | 79.15 | 79.13
m1 = 0.3749 | 79.51 | 79.43 | 79.39 | 79.37
m1 = 0.4 | 79.68 | 79.61 | 79.57 | 79.56
m1 = 0.4248 | 79.91 | 79.85 | 79.83 | 79.83
m1 = 0.4742 | 80.26 | 80.22 | 80.2 | 80.2
m1 = 0.5499 | 80.8 | 80.74 | 80.73 | 80.77
m1 = 0.6251 | 81.38 | 81.36 | 81.37 | 81.41
m1 = 0.7072 | 81.85 | 81.84 | 81.87 | 81.93
m1 = 1.277 | 85.58 | 85.68 | 85.8 | 85.96
m1 = 2.09 | 90.58 | 90.8 | 91.05 | 91.33
